Laboratory results as given in publication PMC10510397, “Development of a Selective Peptide κ-Opioid Receptor Antagonist by Late-Stage Functionalization with Cysteine Staples” (Journal of Medicinal Chemistry, 2023).
Structures can show the parent of a compound that is named as a salt. Where two headings read alike, the source gives them in different places. Numbered stars: 1 amine (or outer) side, 2 acyl side, 3 side chain; on linkers, the order of the positions; unused ones are H or OH. Bridge positions count the residues as written; N and C are the ends. Square brackets hold non-standard residues; d marks the D form. Peptide text beside a SMILES is read from it. CH2COCH2 = O=C(C[*:1])C[*:2]; CH2 = C([*:1])[*:2]; Mpa = O=C(O)CCS

What was measured:
[1] = stability assay in human serum (RP-HPLC); format: in vitro ADME; details: 37 °C
Description: The stability of peptide ligands was determined with human serum from male AB plasma (Sigma) centrifuged at 13,300g for 10 min to remove the lipid content. The supernatant was preincubated at 37 °C for 5 min before 10 μL of a peptide stock solution (3 mg/mL in H2O) was added to 300 μL of serum. A reference solution was prepared in phosphate-buffered saline (PBS) buffer. The serum was incubated at 37 °C and analyzed over a time course of 5 h with 40 μL of aliquots removed at time points T = 0, 15, 30, 60, 90, 120, 240, and 300 min. Each aliquot was quenched with 40 μL of 5 M urea and incubated on ice for 10 min. The proteins were then precipitated with the addition of 40 μL of 20% (w/v) trichloroacetic acid and further incubated on ice for 10 min. The samples were centrifuged for 10 min at 15,000g, and the supernatant was analyzed by analytical RP-HPLC using a Phenomenex Jupiter C18 column (5 μm, 300 Å, 150 × 2 mm) using a linear gradient from 0 to 50% solvent B (90% acetonitrile, 10% H2O, and 0.05% trifluoroacetic acid) and a flow rate of 1 mL/min. The percentage of peptide remaining was determined by the integration of the analyte in comparison to T = 0 min. The peptides were analyzed in triplicate, and data were fitted to an exponential decay curve using GraphPad Prism software.

mouse KOR [2] = target: T1, mouse KOR (Mus musculus, UniProt P33534); assay: cell-based; format: cell-based; design: expressed in transfected cells; details: for activity at KOR in the functional cAMP assay: agonist mode, ligand on its own, up to concentrations of 10 μM; for EC50: HEK293 cells stably expressing mouse KOR, forskolin 10 μM, n.a. = not active, read-out: potency/efficacy cAMP EC50 ± SD; for Emax: read-out: potency/efficacy cAMP Emax ± SD
T1 sequence (P33534 whole entry): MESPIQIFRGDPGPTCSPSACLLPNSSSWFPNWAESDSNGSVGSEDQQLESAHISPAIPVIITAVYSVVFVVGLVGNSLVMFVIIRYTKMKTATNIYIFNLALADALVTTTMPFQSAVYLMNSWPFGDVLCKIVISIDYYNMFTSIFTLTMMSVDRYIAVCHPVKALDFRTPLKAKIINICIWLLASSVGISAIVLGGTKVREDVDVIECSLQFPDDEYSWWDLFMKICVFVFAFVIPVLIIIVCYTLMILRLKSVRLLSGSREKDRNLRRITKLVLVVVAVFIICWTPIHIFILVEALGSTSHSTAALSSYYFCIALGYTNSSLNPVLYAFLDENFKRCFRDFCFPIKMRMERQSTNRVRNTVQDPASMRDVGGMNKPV

mouse KOR [3] = target: T1, mouse KOR; assay: biochemical; format: binding; design: expressed in transfected cells
mouse KOR [4] = target: T1, mouse KOR; format: cell-based; design: expressed in transfected cells; host or cells: HEK293 (transient co-transfection, 1:10 ratio); details: 10 μM ligand; compared to dynA1–13-NH2 = 100%
DRG neurons = assay: single-cell calcium microfluorimetry in DRG neurons; format: cell-based, mouse; details: 0.5 μM pre-applied, U50,488 10 μM
mice [5] = assay: radiant heat tail-flick assay; format: in vivo, mouse; details: 10 mg/kg s.c., 24 h before U50,488 5 mg/kg
Description: (§1) Breeding, euthanasia, and all procedures of animal handling were performed according to the regulations of animal care and welfare. Experiments were carried out in accordance with the European Communities Council Directive of 24 November 1986 (86/609/EEC). Behavioral experiments were performed in male CD1 mice (8–10 weeks old) purchased from Janvier Labs (Le Genest-Saint-Isle, France). All animal care and experimental procedures were in accordance with the ethical guidelines for the animal welfare standards of the European Communities Council Directive (2010/63/EU) and were approved by the Committee of Animal Care of the Austrian Federal Ministry of Science and Research. […]
The radiant heat tail-flick test was performed using an UB 37360 Ugo Basile analgesiometer (Ugo Basile s.r.l., Varese, Italy) as described previously.[52] The reaction time required by the mouse to remove its tail after application of the radiant heat was measured and defined as the tail-flick latency (in seconds). Tail-flick latencies were measured before and after s.c. administration of saline (control) or U50,488 (5 mg/kg) (i.e., 30 and 60 min) (test latency, TL). […] The antinociceptive effect (as the percentage of the maximum possible effect, % MPE) was calculated according to the formula = [(TL – BL)/(cutoff time – BL)] × 100 where TL represents the test latency and BL is the basal latency.

mice [6] = assay: rotarod test; format: in vivo, mouse; details: 10 mg/kg s.c., 24 h before U50,488 5 mg/kg; at 30 min
Description: as §1, with “Research. Mice were group-housed in a temperature-controlled specific pathogen-free room with a 12 h light/dark cycle and with free access to food and water.” for “Research.”
The rotarod test was performed using the accelerating rotarod treadmill (Acceler Rota-Rod 7650, Ugo Basile s.r.l., Varese, Italy) for mice (diameter 3.5 cm) as described previously.[53] […] The time spent on the drum was recorded for each mouse before (baseline) and at 30 min after s.c. administration of saline (control) or U50,488 (5 mg/kg). […] The rotarod data are expressed as percentage (%) changes from the rotarod latencies obtained before (baseline, BL) and after drug administration (test, TL) calculated as 100 × (TL/BL).

[7] = 1 nM [3H]-diprenorphine, HEK293 cell membranes stably expressing mouse KOR, read-out: affinity Ki ± SD

Compound: CC(C)C[C@H](NC(=O)[C@H](CCCCN)NC(=O)[C@@H]1CCCN1C(=O)[C@H](CCCNC(=N)N)NC(=O)[C@@H]1CSCSCCC(=O)N[C@@H](Cc2ccc(O)cc2)C(=O)NCC(=O)NCC(=O)N[C@@H](Cc2ccccc2)C(=O)N[C@@H](CC(C)C)C(=O)N[C@@H](CCCNC(=N)N)C(=O)N[C@@H](CCCNC(=N)N)C(=O)N1)C(=O)N[C@@H](CCCCN)C(N)=O [CSD-CH2(1,8)-NH2] ([Mpa]YGGFLRRCRPKLK-NH2; linker 1-9 via CH2)
- t1/2 in human serum [1]: 95 min
- activity at KOR in the functional cAMP assay (mouse KOR [2]): inactive

Compound: CC(C)C[C@H](NC(=O)[C@H](CCCCN)NC(=O)[C@@H]1CCCN1C(=O)[C@H](CCCNC(=N)N)NC(=O)[C@@H]1CSCSCCC(=O)N[C@@H](Cc2ccc(O)cc2)C(=O)NCC(=O)NCC(=O)N[C@@H](Cc2ccccc2)C(=O)N[C@@H](CC(C)C)C(=O)N[C@@H](CCCNC(=N)N)C(=O)N[C@@H](CCCNC(=N)N)C(=O)N1)C(=O)N[C@@H](CCCCN)C(=O)O [CSD-CH2(1,8)-OH] ([Mpa]YGGFLRRCRPKLK-OH; linker 1-9 via CH2)
- activity at KOR in the functional cAMP assay (mouse KOR [2]): inactive

Compound: CC[C@H](C)[C@@H]1NC(=O)[C@H](CCCNC(=N)N)NC(=O)[C@H](CCCNC(=N)N)NC(=O)[C@H](CC(C)C)NC(=O)[C@H](Cc2ccccc2)NC(=O)CNC(=O)CNC(=O)[C@H](Cc2ccc(O)cc2)NC(=O)CCSCSC[C@@H](C(=O)N[C@@H](CCCCN)C(=O)N[C@@H](CC(C)C)C(=O)N[C@@H](CCCCN)C(N)=O)NC(=O)[C@H](CCCNC(=N)N)NC1=O [CSD-CH2(1,10)-NH2] ([Mpa]YGGFLRRIRCKLK-NH2; linker 1-11 via CH2)
- Ki (mouse KOR [3]): 6 nM
- Ki (mouse KOR [3]; [7]): 5.6 nM
- improvement of KOR affinity by C-terminal amidation (mouse KOR [3]; versus counterpart with C-terminal carboxylic acid): ~6 fold
- EC50 (mouse KOR [2]): 540 nM
- Emax (mouse KOR [2]): 49 ± 15%
- β-arrestin-2 recruitment efficiency (ligand induced BRET) (mouse KOR [4]): 38%

Compound: CC[C@H](C)[C@@H]1NC(=O)[C@H](CCCNC(=N)N)NC(=O)[C@H](CCCNC(=N)N)NC(=O)[C@H](CC(C)C)NC(=O)[C@H](Cc2ccccc2)NC(=O)CNC(=O)CNC(=O)[C@H](Cc2ccc(O)cc2)NC(=O)CCSCSC[C@@H](C(=O)N[C@@H](CCCCN)C(=O)N[C@@H](CC(C)C)C(=O)N[C@@H](CCCCN)C(=O)O)NC(=O)[C@H](CCCNC(=N)N)NC1=O [CSD-CH2(1,10)-OH] ([Mpa]YGGFLRRIRCKLK-OH; linker 1-11 via CH2)
- Ki (mouse KOR [3]; [7]): 31 nM
- activity at KOR in the functional cAMP assay (mouse KOR [2]): inactive
- β-arrestin-2 recruitment efficiency (ligand induced BRET) (mouse KOR [4]): less than 25%

Compound: CC(C)C[C@H](NC(=O)[C@H](CCCCN)NC(=O)[C@@H]1CCCN1C(=O)[C@H](CCCNC(=N)N)NC(=O)[C@@H]1CSCC(=O)CSCCC(=O)N[C@@H](Cc2ccc(O)cc2)C(=O)NCC(=O)NCC(=O)N[C@@H](Cc2ccccc2)C(=O)N[C@@H](CC(C)C)C(=O)N[C@@H](CCCNC(=N)N)C(=O)N[C@@H](CCCNC(=N)N)C(=O)N1)C(=O)N[C@@H](CCCCN)C(N)=O [CSD-ace(1,8)-NH2] ([Mpa]YGGFLRRCRPKLK-NH2; linker 1-9 via CH2COCH2)
- Emax (mouse KOR [2]): 73 ± 14%

Compound: CC(C)C[C@H](NC(=O)[C@H](CCCCN)NC(=O)[C@@H]1CCCN1C(=O)[C@H](CCCNC(=N)N)NC(=O)[C@@H]1CSCC(=O)CSCCC(=O)N[C@@H](Cc2ccc(O)cc2)C(=O)NCC(=O)NCC(=O)N[C@@H](Cc2ccccc2)C(=O)N[C@@H](CC(C)C)C(=O)N[C@@H](CCCNC(=N)N)C(=O)N[C@@H](CCCNC(=N)N)C(=O)N1)C(=O)N[C@@H](CCCCN)C(=O)O [CSD-ace(1,8)-OH] ([Mpa]YGGFLRRCRPKLK-OH; linker 1-9 via CH2COCH2)
- Emax (mouse KOR [2]): 57 ± 11%

Compound: CC[C@H](C)[C@H](NC(=O)[C@H](CCCNC(=N)N)NC(=O)[C@H](CCCNC(=N)N)NC(=O)[C@H](CC(C)C)NC(=O)[C@H](Cc1ccccc1)NC(=O)CNC(=O)CNC(=O)[C@@H](N)Cc1ccc(O)cc1)C(=O)N[C@@H](CCCNC(=N)N)C(=O)N1CCC[C@H]1C(=O)N[C@@H](CCCCN)C(=O)N[C@@H](CC(C)C)C(=O)N[C@@H](CCCCN)C(N)=O [dynA1–13-NH2, Dynorphin (dyn) A1–13 amide trifluoroacetate salt, reference compound]
- t1/2 in human serum [1]: 4 min
- EC50 (mouse KOR [2]): 9.1 nM
- Emax (mouse KOR [2]): 100%
- β-arrestin-2 recruitment efficiency (ligand induced BRET) (mouse KOR [4]): 100%

Compound: Oc1ccc2c3c1O[C@H]1c4[nH]c5c(c4C[C@@]4(O)[C@@H](C2)N(CC2CC2)CC[C@]314)C[C@@]1(O)[C@H]2Cc3ccc(O)c4c3[C@@]1(CCN2CC1CC1)[C@H]5O4 [nor-BNI, norbinaltorphimine]
- effect on U50,488-induced calcium signals in DRG neurons (DRG neurons): inhibited the activity of U50,488
- antagonism of U50,488-induced antinociception (mice [5]): blocked the antinociceptive response of U50,488
- antagonism of U50,488 effect in the rotarod test (mice [6]): Antagonism
